Measurements from PMC6908736, “Toxic Tau Oligomers Modulated by Novel Curcumin Derivatives” (Scientific Reports, 2019).
Where two headings read alike, the source gives them in different places.

Legend:
[1] = tested on: human neuroblastoma SH-SY5Y cell line; assay: MTS cytotoxicity of curcumin derivatives (dose-response); assay type: cell-based; design: LogIC50 (cell viability): unit not given here; details: for IC50: Homo sapiens; for LogIC50 (cell viability): n = 3
Text: Six compounds were selected due to their higher activity in modulating toxic TauO and subjected to additional in vitro testing to validate their effects on TauO (Fig. 2B). […] Compounds CL3,8 were obtained through a double aldol condensation on the diacetyl of the appropriate aromatic aldehyde 1[58]. Similarly, HemiC9 was obtained by means of Claisen-Schmidt Aldol condensation of acetone under basic conditions (Fig. 2C)[59]. Heterocyclic derivative CH8 was obtained in a two-step procedure from the corresponding cinnamic acid derivative 2 (Fig. 2D)[60]. […] This method allows the obtainment of target products avoiding the use of protecting groups. One of the criteria used to select these small molecules was evaluating their toxicity profile. The cytotoxicity of each curcumin derivative was examined by exposing the cultured human neuroblastoma SH-SY5Y cell line to a continuous range of small molecule concentrations (0–800 μM) and monitoring cell survival after 24 hours of treatment by an MTS assay. […] Human neuroblastoma SH-SY5Y cells (ATCC CRL-2266) were maintained in DMEM and grown to confluence in 96-well plates as previously described. […] The dose-response curve was used to calculate the concentration of the compound required for 50% inhibition of cell viability (IC50). Cell viability was corrected by the vehicle background. All measurements were performed in triplicate. The cytotoxic effect was determined using MTS assay (G3582, Promega) for assessing cell viability following the manufacturers’ instructions. Optical density (OD) was measured at 490 nm with POLARstar OMEGA plate reader (BMG Labtechnologies). Cell viability was calculated as the percentage of the OD value of treated cells compared to untreated controls, according to the following equation: Viability = (OD SAMPLE/OD CONTROL) × 100%.

[2] = target: T1, preformed recombinant tau oligomers (TauO) (Homo sapiens, UniProt P10636); assay: Western blot of tau oligomers with and without compounds; assay type: biochemical; details: curcumin 1:5 and 1:10 molar ratio
T1 construct: made in house
T1 sequence (P10636 1-441 isoform P10636-8): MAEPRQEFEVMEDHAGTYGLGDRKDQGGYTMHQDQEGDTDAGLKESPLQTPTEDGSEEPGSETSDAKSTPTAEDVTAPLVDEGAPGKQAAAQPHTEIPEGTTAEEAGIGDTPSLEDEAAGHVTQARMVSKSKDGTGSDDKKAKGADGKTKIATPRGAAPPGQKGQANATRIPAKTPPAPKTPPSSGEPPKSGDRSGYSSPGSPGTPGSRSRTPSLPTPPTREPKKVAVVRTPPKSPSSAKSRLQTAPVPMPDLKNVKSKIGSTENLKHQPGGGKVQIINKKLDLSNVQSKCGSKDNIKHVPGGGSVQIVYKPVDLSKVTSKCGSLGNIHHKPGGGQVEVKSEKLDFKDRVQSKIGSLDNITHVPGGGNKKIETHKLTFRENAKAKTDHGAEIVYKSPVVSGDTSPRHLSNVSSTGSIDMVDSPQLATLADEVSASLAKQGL
Description: The tau pellet was treated with 8 M urea followed by overnight dialysis against 1X phosphate-buffered saline (PBS) pH 7.4. Tau concentration was measured using bicinchoninic acid protein assay (Pierce BCA Protein Assay Kit, 23225, Thermo Fisher Scientific) and normalized to 1 mg/mL by adding 1X PBS. Aliquots of tau monomer in PBS were stored at -20 °C. Each 300 µL of tau stock (0.3 mg) was added to 700 µL of 1X PBS and incubated for 1 hour on an orbital shaker at room temperature. After shaking, the resulting tau oligomers were purified by fast protein liquid chromatography (FPLC, Superdex 200 Increase 10/300 column, Amersham Biosciences).
(§1) A volume of 100 μL of tau oligomers (1 µg/μL) was incubated with curcumin (1:5 and 1:10 molar ratio) and curcumin derivatives (1:5 molar ratio). Compounds were dissolved in EtOH 75%/DMSO (5:1) at a final concentration of 5 mM and diluted in 1X PBS or ddH2O for incubation or toxicity assay (final concentration 5 μM). Tau oligomers in the presence of the small molecules and controls were incubated on an orbital shaker, without stirring, for 16 hours under oligomerization conditions as previously described.
An amount of 3 µg of each sample were resolved on a pre-cast NuPAGE 4–12% Bis-Tris Gels for SDS-PAGE (NP0335BOX, Invitrogen) and transferred to nitrocellulose membranes. […]

[3] = tested on: SH-SY5Y cells exposed to TauO; assay: MTS assay of TauO-induced toxicity in SH-SY5Y; assay type: cell-based, human; details: 2 µM TauO, curcumin final concentration 10 μM, 24 hours
Description: Human neuroblastoma SH-SY5Y cells (ATCC CRL-2266) were maintained in DMEM and grown to confluence in 96-well plates as previously described. […] The dose-response curve was used to calculate the concentration of the compound required for 50% inhibition of cell viability (IC50).
Cell viability was corrected by the vehicle background. All measurements were performed in triplicate. The cytotoxic effect was determined using MTS assay (G3582, Promega) for assessing cell viability following the manufacturers’ instructions. Optical density (OD) was measured at 490 nm with POLARstar OMEGA plate reader (BMG Labtechnologies). Cell viability was calculated as the percentage of the OD value of treated cells compared to untreated controls, according to the following equation: Viability = (OD SAMPLE/OD CONTROL) × 100%.

[4] = target: T1, preformed recombinant tau oligomers (TauO); assay: Direct ELISA, dot blot and filter trap of tau oligomers (T22, TOMA1, Tau 5); assay type: biochemical; details: curcumin 1:5 and 1:10 molar ratio, vs untreated TauO
Description: as §1
Dot blot assay to detect tau oligomers in the absence or presence of small molecules was performed as previously described. Briefly, 1.5 μl of each end-product reaction was applied onto nitrocellulose membranes and then blocked with 10% nonfat milk in TBS-T overnight at 4 °C. The next day, membranes were probed with the oligomer-specific tau antibodies, T22 (1:250), TOMA1(1:200) and total tau antibody, Tau 5, (1:10000) diluted in 5% nonfat milk for 1 hour at RT. […]
ELISA assay was conducted as previously described. […] Plates were washed three times with TBS-T and developed with 3,3,5,5-tetramethylbenzidine (TMB + Substrate- Chromogen, S1599, Dako) The reaction was stopped using 100 μL of 1 M HCl and absorbance was read at 450 nm using POLARstar OMEGA plate reader. […]

[5] = MTS, 0–800 μM, 24 hours, n = 3, read-out: IC50 (cell viability)

## O=C(/C=C/c1ccc(F)cc1)C(=O)/C=C/c1ccc(F)cc1 [CL3]
[1]; [5]
  IC50: 56.1 µM
[1]; MTS, 0–800 μM, 24 hours
  LogIC50 (cell viability): 1.749

## COc1cc(/C=C/C(=O)CC(=O)/C=C/c2ccc(O)c(OC)c2)ccc1O [curcumin]
[2]
  aggregation state of TauO by Western blot (T22, Tau 5, Tau 13): promoting the formation of higher molecular weight tau aggregates
[3]
  cell viability after TauO in the presence of compound: rescued cells from TauO-induced toxicity
[4]
  oligomer level, T22 immunoreactivity (direct ELISA and dot blot): significant decrease in oligomers

## CC(=O)/C=C/c1ccc(C)cc1 [HemiC9]
[1]; [5]
  IC50: 124 µM

## O=C(/C=C/c1ccc(Cl)cc1)COC(=O)/C=C/c1ccc(Cl)cc1 [Cal7]
[1]; 24 h, read-out: IC50 (cell viability)
  IC50: 191 µM
[1]; MTS, 0–800 μM, 24 hours
  LogIC50 (cell viability): 2.281

## CN(C)c1ccc(/C=C/c2nnc(/C=C/c3ccc(N(C)C)cc3)o2)cc1 [CH8]
[1]; [5]
  IC50: 110 µM
[1]; MTS, 0–800 μM, 24 hours
  LogIC50 (cell viability): 2.042

## O=C(/C=C/c1ccccc1Cl)C(=O)/C=C/c1ccccc1Cl [CL8]
[1]; [5]
  IC50: 54.5 µM
[1]; MTS, 0–800 μM, 24 hours
  LogIC50 (cell viability): 1.737
